Results taken from ChEMBL document CHEMBL1201862, “PubChem BioAssay data set” (2004).
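Briefly, cells in 96-well plates were exposed to five compound concentrations for 48 h, and endpoints were estimated by linear interpolation. The concentration for 50% growth inhibition is given as GI50.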 The source made the active and inactive calls. Cut-off read from the data, not from the text of the source: active = GI50 up to about 1.1 µM and inactive = higher.

Legend:
Assay in all cases: NCI tumour cell line growth inhibition, 48 h
OVCAR-4 = test system: OVCAR-4
OVCAR-3 = test system: OVCAR-3
SK-OV-3 = test system: SK-OV-3
HOP-62 = test system: HOP-62
UACC-257 = test system: UACC-257
LOX IMVI = test system: LOX IMVI
SR = test system: SR
BT-549 = test system: BT-549
SN12C = test system: SN12C
SF-539 = test system: SF-539
T47D = test system: T47D
SK-MEL-28 = test system: SK-MEL-28
UO-31 = test system: UO-31
SNB-75 = test system: SNB-75
HCT-116 = test system: HCT-116
NCI-H460 = test system: NCI-H460
SF-295 = test system: SF-295
NCI/ADR-RES = test system: NCI/ADR-RES
MCF7 = test system: MCF7
EKVX = test system: EKVX

Row | SMILES | GI50 (OVCAR-4) | GI50 (OVCAR-3) | GI50 (SK-OV-3) | GI50 (HOP-62) | GI50 (UACC-257) | GI50 (LOX IMVI) | GI50 (SR) | GI50 (BT-549) | GI50 (SN12C) | GI50 (SF-539) | GI50 (T47D) | GI50 (SK-MEL-28) | GI50 (UO-31) | GI50 (SNB-75) | GI50 (HCT-116) | GI50 (NCI-H460) | GI50 (SF-295) | GI50 (NCI/ADR-RES) | GI50 (MCF7) | GI50 (EKVX)
1 | CN(Cc1cc(Cl)cc(Cl)c1O)Cc1c(O)ccc2ccccc12 | 17.1 µM (inactive) | 16.6 µM (inactive) | 18.2 µM (inactive) | 18.1 µM (inactive) | 18.2 µM (inactive) | 16.7 µM (inactive) | 23.8 µM (inactive) | 17 µM (inactive) | 21.2 µM (inactive) | 20.9 µM (inactive) | 19.2 µM (inactive) | 19.1 µM (inactive) | 17.3 µM (inactive) | 16.7 µM (inactive) | 23.7 µM (inactive) | 18.4 µM (inactive) | 17.2 µM (inactive) | 20.6 µM (inactive) | 17.5 µM (inactive) | 20 µM (inactive)
2 | C/C=C(\C)C(O)C(C)C(O)C/C=C(C)/C=C(\C)C/C(C)=C/C/C=C(\C)C(O)C(C)c1ccc(CCC)c(=O)o1 (configuration not stated) | 10 µM (inactive) | 12.1 µM (inactive) | 32.2 µM (inactive) | 16.2 µM (inactive) | 0.249 µM (active) | 6.68 µM (inactive) | 18.8 µM (inactive) | 11.8 µM (inactive) | 16.6 µM (inactive) | 14.1 µM (inactive) | 12.1 µM (inactive) | 17.1 µM (inactive) | 7.82 µM (inactive) | 10.8 µM (inactive) | 0.544 µM (active) | 5.18 µM (inactive) | 0.349 µM (active) | 2.8 µM (inactive) | 4.25 µM (inactive) | 17.5 µM (inactive)
3 | COc1ccc2c3c1O[C@H](c1ccc(O)cc1)[C@H]3[N+](C)(C)CC2 | 5.51 µM (inactive) | > 100 µM (inactive) | > 100 µM (inactive) | > 100 µM (inactive) | > 100 µM (inactive) | > 100 µM (inactive) | > 100 µM (inactive) | > 100 µM (inactive) | > 100 µM (inactive) | > 100 µM (inactive) | > 100 µM (inactive) | > 100 µM (inactive) | > 100 µM (inactive) | > 100 µM (inactive) | > 100 µM (inactive) | > 100 µM (inactive) | > 100 µM (inactive) | > 100 µM (inactive) | > 100 µM (inactive) | > 100 µM (inactive)
4 | CCCCCCCCCCCCCCCCCCNc1ccn(C2OC(CO)C(O)C2O)c(=O)n1 (configuration not stated) | > 100 µM (inactive) | > 100 µM (inactive) | > 100 µM (inactive) | > 100 µM (inactive) | > 100 µM (inactive) | > 62.8 µM (inactive) | 23.7 µM (inactive) | > 100 µM (inactive) | > 100 µM (inactive) | > 100 µM (inactive) | > 40.7 µM (inactive) | > 100 µM (inactive) | > 100 µM (inactive) | 29.9 µM (inactive) | > 100 µM (inactive) | > 100 µM (inactive) | > 100 µM (inactive) | > 100 µM (inactive) | 57.1 µM (inactive) | > 100 µM (inactive)
5 | COc1cc(/C=C2\N=C(c3ccccc3)N(/N=C/c3cc4cc(C)ccc4nc3Cl)C2=O)cc(OC)c1OC | 37.5 µM (inactive) | 26.5 µM (inactive) | 59.8 µM (inactive) | 58.7 µM (inactive) | 46.5 µM (inactive) | 32.1 µM (inactive) | 19.4 µM (inactive) | 52.2 µM (inactive) | 61.8 µM (inactive) | 23.4 µM (inactive) | 18 µM (inactive) | 91.6 µM (inactive) | 48.6 µM (inactive) | 17.1 µM (inactive) | 33.7 µM (inactive) | 29.4 µM (inactive) | 44.2 µM (inactive) | 28 µM (inactive) | 27.4 µM (inactive) | 54.5 µM (inactive)
6 | Cc1cc(Nc2ccc(/N=N/c3ccc(O)c4ncccc34)cc2)nc(C)n1 | 18 µM (inactive) | 7.76 µM (inactive) | 23.9 µM (inactive) | 15.9 µM (inactive) | 16.6 µM (inactive) | 6.52 µM (inactive) | 6.34 µM (inactive) | 16.4 µM (inactive) | 10.4 µM (inactive) | 3.99 µM (inactive) | 6.01 µM (inactive) | 11.2 µM (inactive) | 11 µM (inactive) | 9.35 µM (inactive) | 8.93 µM (inactive) | 6.93 µM (inactive) | 18.6 µM (inactive) | 6.28 µM (inactive) | 11 µM (inactive) | 34.8 µM (inactive)
7 | C/C=C/C=C/C1=NN(c2cccc(S(=O)(=O)O)c2)C2(C1)C(Cl)C(=O)N2c1nc2ccccc2s1 (configuration not stated) | 13.7 µM (inactive) | 8.36 µM (inactive) | 19.2 µM (inactive) | 14.7 µM (inactive) | 15.4 µM (inactive) | 7.85 µM (inactive) | 18.9 µM (inactive) | 17.7 µM (inactive) | 14.9 µM (inactive) | 12.6 µM (inactive) | 4.6 µM (inactive) | 20.6 µM (inactive) | 2 µM (inactive) | 12.4 µM (inactive) | 14.4 µM (inactive) | 15.4 µM (inactive) | 16.3 µM (inactive) | 27.2 µM (inactive) | 13.4 µM (inactive) | 16.4 µM (inactive)
8 | CSC(CC(=O)O)C(=O)O (configuration not stated) | > 100 µM (inactive) | > 100 µM (inactive) | > 100 µM (inactive) | > 100 µM (inactive) | > 100 µM (inactive) | > 100 µM (inactive) | > 100 µM (inactive) | > 100 µM (inactive) | > 100 µM (inactive) | > 100 µM (inactive) | > 100 µM (inactive) | > 100 µM (inactive) | > 100 µM (inactive) | > 100 µM (inactive) | > 100 µM (inactive) | > 100 µM (inactive) | > 100 µM (inactive) | > 100 µM (inactive) | > 100 µM (inactive) | > 100 µM (inactive)
9 | COc1cc2c(cc1OC)CC(N=[N+]=[N-])c1cc(OC)c(OC)cc1/C=C\2 (configuration not stated) | 99.3 µM (inactive) | 53.7 µM (inactive) | 38.5 µM (inactive) | 77.6 µM (inactive) | 46 µM (inactive) | 40.6 µM (inactive) | > 100 µM (inactive) | 0.826 µM (active) | 68.5 µM (inactive) | 39.9 µM (inactive) | 75 µM (inactive) | 89.1 µM (inactive) | 38.5 µM (inactive) | 16.6 µM (inactive) | 28.7 µM (inactive) | 43.4 µM (inactive) | 31.8 µM (inactive) | 25.2 µM (inactive) | 49.7 µM (inactive) | 43.2 µM (inactive)
10 | Oc1ccc2c(c1)-c1c(c3cc(O)ccc3n1CCN1CCOCC1)CC2 | 25.4 µM (inactive) | 20.7 µM (inactive) | 23.9 µM (inactive) | 19.5 µM (inactive) | 36.6 µM (inactive) | 17.6 µM (inactive) | 18.4 µM (inactive) | 14.5 µM (inactive) | 35.3 µM (inactive) | 22.6 µM (inactive) | 18.8 µM (inactive) | 18.5 µM (inactive) | 17.5 µM (inactive) | 19.5 µM (inactive) | 19.1 µM (inactive) |  | 20.1 µM (inactive) | 24.8 µM (inactive) | 18.7 µM (inactive) | 30.8 µM (inactive)
11 | COC(=O)C1C2OC(C)(C)OC2CN1S(=O)(=O)c1ccc(C)cc1 (configuration not stated) | > 100 µM (inactive) | > 100 µM (inactive) | > 100 µM (inactive) | > 100 µM (inactive) | > 100 µM (inactive) | > 100 µM (inactive) | > 100 µM (inactive) | > 100 µM (inactive) | > 100 µM (inactive) | > 100 µM (inactive) | > 100 µM (inactive) | > 100 µM (inactive) | > 100 µM (inactive) | 10.9 µM (inactive) | > 100 µM (inactive) | > 100 µM (inactive) | > 100 µM (inactive) | > 100 µM (inactive) | > 100 µM (inactive) | 8.04 µM (inactive)
12 | Nc1cc(N)c(/N=N/c2cccc3c(S(=O)(=O)O)cccc23)cc1/N=N/c1cc([N+](=O)[O-])ccc1O | 18.4 µM (inactive) | 9.08 µM (inactive) | 59.7 µM (inactive) | 29.9 µM (inactive) | 26.3 µM (inactive) | 13.6 µM (inactive) | 13.5 µM (inactive) | 31.6 µM (inactive) | 32.3 µM (inactive) | 38 µM (inactive) | 38.8 µM (inactive) |  | 19 µM (inactive) | 49.1 µM (inactive) | 32.7 µM (inactive) | 29.1 µM (inactive) | 32.2 µM (inactive) | 21.9 µM (inactive) | 32.6 µM (inactive) | > 100 µM (inactive)
13 | C=C(C)C(=O)O[C@H]1CC2(CO)O[C@@H]2CC/C(COC(C)=O)=C/C2OC(=O)C(=C)[C@@H]21 (some centres not stated) | 39.6 µM (inactive) | 30.2 µM (inactive) | > 100 µM (inactive) | > 100 µM (inactive) | 20 µM (inactive) | 23.9 µM (inactive) | 16.9 µM (inactive) | 21.8 µM (inactive) | 92 µM (inactive) | 74.8 µM (inactive) | 29.5 µM (inactive) | 23.6 µM (inactive) | 22.5 µM (inactive) | 59.7 µM (inactive) | 18.2 µM (inactive) | > 100 µM (inactive) | > 100 µM (inactive) | 45.6 µM (inactive) | 11.4 µM (inactive) | > 100 µM (inactive)
14 | c1ccc2c(NCCCCCCNc3c4ccccc4nc4ccccc34)c3ccccc3nc2c1 | 0.429 µM (active) | 0.277 µM (active) | 1.01 µM (active) | 0.206 µM (active) | 2.7 µM (inactive) | 0.105 µM (active) | 0.0288 µM (active) | 1.5 µM (inactive) | 0.137 µM (active) | 0.108 µM (active) | 0.647 µM (active) |  | 11.3 µM (inactive) | 0.713 µM (active) | 0.0392 µM (active) | 0.0631 µM (active) | 0.281 µM (active) | 17.9 µM (inactive) | 0.155 µM (active) | 0.367 µM (active)
